A word on the EC50: it is the concentration at which the effect is half-maximal.

In patent US20250368625A1, “PIPERAZINES” (Grünenthal GmbH, priority 2024, published 2025) one finds EC50 data, which are given here for 14 molecules.

T1 sequence (P31391 whole entry): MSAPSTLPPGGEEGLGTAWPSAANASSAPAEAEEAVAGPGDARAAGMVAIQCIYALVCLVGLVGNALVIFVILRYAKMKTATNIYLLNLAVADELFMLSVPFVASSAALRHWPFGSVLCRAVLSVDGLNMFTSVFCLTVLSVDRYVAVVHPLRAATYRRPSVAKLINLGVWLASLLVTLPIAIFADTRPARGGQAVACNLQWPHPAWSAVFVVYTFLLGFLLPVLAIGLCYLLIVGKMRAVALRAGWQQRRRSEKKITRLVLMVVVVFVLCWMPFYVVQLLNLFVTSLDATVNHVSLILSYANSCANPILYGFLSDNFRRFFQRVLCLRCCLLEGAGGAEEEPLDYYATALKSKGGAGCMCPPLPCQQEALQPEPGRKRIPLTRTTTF

The assay concerns the target T1, human SSTR4 (Homo sapiens, UniProt P31391).
T1 construct: expressed in transfected cells; host or cells: CHO-K1
Put plainly: hSSTR4 cAMP assay (cAMP accumulation, LANCE Ultra cAMP kit, CHO-K1 human SSTR4 Gi cell line). The assay is classed as cell-based. The note with it: functional agonism, forskolin 10 μM stimulated CHO-K1 human SSTR4 Gi cells, 30 min at 25° C., at least duplicate, averaged; read-out: hSSTR4 EC50. On the procedure: cAMP accumulation assay using a CHO-K1 human SSTR4 Gi cell line.
Quantification of intracellular cAMP was performed using the LANCE Ultra cAMP assay kit from Revvity according to the manufacturer's instructions. CHO-K1 human SSTR4 Gi cell were either seeded in a density of 3K cells per well into a 384 well plate and incubated at 37° C. and 5% CO2 for 18-20 h or a stock of frozen cells were defrosted and seeded in a density of 5K cells per well without any further cultivation directly prior to the assay in a total volume of 5 μL in stimulation buffer. For pre-cultured cells, medium was replaced with 5 μL stimulation buffer before the assay. Cells were then stimulated with forskolin (final concentration 10 μM) and test compound (SSTR4 agonist) in increasing concentrations in duplicates for 30 min at 25° C. After stimulation, cells were lysed by addition of 10 μL of detection buffer (provided with the kit) and cell lysates were further diluted to ensure final cAMP concentrations fitted well into the dynamic range of the test kit. 10 μL of the diluted lysates were then added to respective wells of an OptiPlate-384 microplate. Thereafter, 5 μL of 4× Eu-cAMP tracer working solution was added, followed by addition of 5 μL of ULight-anti-cAMP working solution. The plate was then incubated for 1 h at 25° C. before reading on a TR-FRET microplate instrument. Data were normalized to cAMP high (forskolin only) and low control (forskolin+100 nM SST14) before fitting to a 4-Paramter logistic function.
All data was generated according to the cAMP assay conditions described above in at least duplicate and results are averaged and rounded to two significant figures.
(Cyclic AMP is a second messenger, typically raised through Gs and lowered through Gi signalling.)
Regarding `Cc1cccn2c(C(C)(C)NC(=O)[C@@H]3CNCCN3CC(F)F)ncc12` [SC-127, (S)-1-(2,2-difluoroethyl)-N-(2-(8-methylimidazo[1,5-al]pyridin-3-yl)propan-2-yl)piperazine-2-carboxamide], the EC50 amounted to 1.1 nM.
For `Cc1cccn2c(C(C)(C)NC(=O)[C@@H]3CN(CC4CCC4)CCN3)ncc12` [SC-068, (S)-4-(cyclobutylmethyl)-N-(2-(8-methylimidazo[1,5-a]pyridin-3-yl)propan-2-yl)piperazine-2-carboxamide] the value was 590 nM.
With `Cn1nc(C(C)(C)NC(=O)[C@@H]2CNCCN2CC2CCOCC2)c2ccccc21` [SC-103, (S)-N-(2-(1-methyl-1H-indazol-3-yl)propan-2-yl)-1-((tetrahydro-2H-pyran-4-yl)methyl)piperazine-2-carboxamide] the figure was 0.22 nM.
As for `Cc1cccn2c(C(C)(C)NC(=O)[C@@H]3CN(C(=O)C4CCOCC4)CCN3)ncc12` [SC-078, (S)-N-(2-(8-methylimidazo[1,5-a]pyridin-3-yl)propan-2-yl)-4-(tetrahydro-2H-pyran-4-carbonyl)piperazine-2-carboxamide], the EC50 stood at 6500 nM.
For `COCCN1CCNC[C@H]1C(=O)NC(C)(C)c1n[nH]c2c(C)cccc12` [SC-097, (S)-1-(2-methoxyethyl)-N-(2-(7-methyl-1H-indazol-3-yl)propan-2-yl)piperazine-2-carboxamide] the value was 1.2 nM.
With `COc1cccn2c(C(C)(C)NC(=O)[C@@H]3CNCCN3C)ncc12` [SC-128, (S)-N-(2-(8-methoxyimidazo[1,5-a]pyridin-3-yl)propan-2-yl)-1-methylpiperazine-2-carboxamide] the figure was 3.8 nM; with `Cc1cccn2c(C(C)(C)NC(=O)[C@@H]3CN(C(=O)c4cnn(C)c4)CCN3)ncc12` [SC-083, (S)-4-(1-methyl-1H-pyrazole-4-carbonyl)-N-(2-(8-methylimidazo[1,5-a]pyridin-3-yl)propan-2-yl)piperazine-2-carboxamide], 6700 nM; with `Cn1cc(CN2CCNC[C@H]2C(=O)NC(C)(C)c2ncc3c(Cl)cccn23)cn1` [SC-106, (S)-N-(2-(8-chloroimidazo[1,5-a]pyridin-3-yl)propan-2-yl)-1-((1-methyl-1H-pyrazol-4-yl)methyl)piperazine-2-carboxamide], 1.5 nM.
With `Cc1cccn2c(C(C)(C)NC(=O)[C@@H]3CNCCN3CC3CCOCC3)ncc12` [SC-086, (S)-N-(2-(8-methylimidazo[1,5-a]pyridin-3-yl)propan-2-yl)-1-((tetrahydro-2H-pyran-4-yl)methyl)piperazine-2-carboxamide] the figure was 0.16 nM.
With `Cc1cccn2c(C(C)(C)NC(=O)[C@@H]3CN(C(=O)c4ccnn4C)CCN3)ncc12` [SC-082, (S)-4-(1-methyl-1H-pyrazole-5-carbonyl)-N-(2-(8-methylimidazo[1,5-a]pyridin-3-yl)propan-2-yl)piperazine-2-carboxamide], the EC50 was determined as 5400 nM.
For `Cc1cccn2c(C(C)(C)NC(=O)[C@@H]3CN(Cc4ccccn4)CCN3)ncc12` [SC-060, (S)-N-(2-(8-methylimidazo[1,5-a]pyridin-3-yl)propan-2-yl)-4-(pyridin-2-ylmethyl)piperazine-2-carboxamide], the EC50 amounted to 1500 nM.
For `CN1CCNC[C@H]1C(=O)NC(C)(C)c1nn(C)c2ccccc12` [SC-100, (S)-1-methyl-N-(2-(1-methyl-1H-indazol-3-yl)propan-2-yl)piperazine-2-carboxamide] the value was 0.91 nM.
With `Cc1cccc2c(C(C)(C)NC(=O)[C@@H]3CNCCN3CC(F)(F)F)n[nH]c12` [SC-098, (S)-N-(2-(7-methyl-1H-indazol-3-yl)propan-2-yl)-1-(2,2,2-trifluoroethyl)piperazine-2-carboxamide] the figure was 0.07 nM; with `Cc1cccn2c(C(C)(C)NC(=O)[C@@H]3CN(C(C)C)CCN3)ncc12` [SC-052, (S)-4-isopropyl-N-(2-(8-methylimidazo[1,5-a]pyridin-3-yl)propan-2-yl)piperazine-2-carboxamide], 22 nM.
